# Test results reported in patent US10221177B2 (HYDRA BIOSCIENCES, INC., priority 2014, dated 2019).
# Molecular target: human TRPA1 (Homo sapiens (Human), UniProt O75762)
# Assay: In vitro inhibition of human TRPA1, whole cell patch configuration
# Format: cell-based
# Conditions: current activation 10 μM AITC, tested concentrations 320 pM to 3.2 μM, read-out: hTRPA1 IC50
# Procedure, shortened: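 Compound antagonism measured from voltage ramps (±100 or ±80 mV, 400 ms, every 4 s from −40 mV), analysed at −80 and 80 mV, or at constant −60 mV. HEPES-buffered NaCl bath, pH 7.4, EGTA or 2 mM Ca2+; temperature set by perfusion, within ±2° C; no junction-potential correction.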
# human TRPA1, sequence (O75762 whole entry): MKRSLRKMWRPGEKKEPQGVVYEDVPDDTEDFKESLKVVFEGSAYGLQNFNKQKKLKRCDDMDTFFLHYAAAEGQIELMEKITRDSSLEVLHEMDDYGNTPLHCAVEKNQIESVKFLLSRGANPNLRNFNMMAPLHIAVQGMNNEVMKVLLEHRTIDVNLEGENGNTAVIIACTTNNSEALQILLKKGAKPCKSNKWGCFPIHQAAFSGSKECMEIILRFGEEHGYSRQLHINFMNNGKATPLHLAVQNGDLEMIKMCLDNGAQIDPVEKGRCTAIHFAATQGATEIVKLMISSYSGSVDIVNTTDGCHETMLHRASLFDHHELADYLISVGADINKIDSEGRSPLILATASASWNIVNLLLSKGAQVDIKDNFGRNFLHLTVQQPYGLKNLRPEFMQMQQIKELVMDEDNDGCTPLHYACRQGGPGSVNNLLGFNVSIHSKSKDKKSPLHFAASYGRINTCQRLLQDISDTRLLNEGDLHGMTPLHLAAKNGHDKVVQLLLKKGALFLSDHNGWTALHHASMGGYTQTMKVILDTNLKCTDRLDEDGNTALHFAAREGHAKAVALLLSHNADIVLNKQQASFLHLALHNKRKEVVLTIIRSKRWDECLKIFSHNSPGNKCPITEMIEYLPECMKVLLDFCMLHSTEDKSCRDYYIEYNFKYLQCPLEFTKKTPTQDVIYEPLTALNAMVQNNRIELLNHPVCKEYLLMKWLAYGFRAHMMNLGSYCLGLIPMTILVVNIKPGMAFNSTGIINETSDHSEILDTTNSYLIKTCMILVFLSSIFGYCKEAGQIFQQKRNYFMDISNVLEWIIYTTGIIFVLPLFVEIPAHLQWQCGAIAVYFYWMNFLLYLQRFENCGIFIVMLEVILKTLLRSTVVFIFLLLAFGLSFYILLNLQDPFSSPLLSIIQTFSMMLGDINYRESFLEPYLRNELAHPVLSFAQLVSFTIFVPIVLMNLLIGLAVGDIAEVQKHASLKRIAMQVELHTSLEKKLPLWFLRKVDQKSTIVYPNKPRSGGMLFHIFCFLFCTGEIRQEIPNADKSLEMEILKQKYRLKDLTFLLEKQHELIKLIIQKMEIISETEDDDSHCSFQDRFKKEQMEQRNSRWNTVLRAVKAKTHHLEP
row,Structure (SMILES),IC50
1,"CCN(c1ccc(NC(=O)Cn2cnc3c2c(=O)n(Cc2cc(C)on2)c(=O)n3C)cc1)C(F)(F)F [Compound 211, N-(4-(ethyl(trifluoromethyl)amino)phenyl)-2-(3-methyl-1-((5-methylisoxazol-3-yl)methyl)-2,6-dioxo-2,3-dihydro-1H-purin-7(6H)-yl)acetamide]",> 1000 nM
2,"CCc1cc(NC(=O)Cn2cnc3c2c(=O)n(Cc2cc(C)on2)c(=O)n3C)nc(C(F)(F)F)c1 [Compound 203, N-(4-ethyl-6-(trifluoromethyl)pyridin-2-yl)-2-(3-methyl-1-((5-methylisoxazol-3-yl)methyl)-2,6-dioxo-2,3-dihydro-1H-purin-7(6H)-yl)acetamide]",1610 nM
3,"CC(=O)Cn1c(=O)c2c(ncn2CC(=O)Nc2cncc(-c3cnc(C(F)(F)F)c(C)c3)n2)n(C)c1=O [Compound 232, 2-(3-methyl-2,6-dioxo-1-(2-oxopropyl)-2,3-dihydro-1H-purin-7(6H)-yl)-N-(6-(5-methyl-6-(trifluoromethyl)pyridin-3-yl)pyrazin-2-yl)acetamide]",56 nM
4,"Cc1ncc(-c2cccc(NC(=O)Cn3cnc4c3c(=O)n(CCCO)c(=O)n4C)n2)cc1C(F)(F)F [Compound 236, 2-(1-(3-hydroxypropyl)-3-methyl-2,6-dioxo-2,3-dihydro-1H-purin-7(6H)-yl)-N-(6′-methyl-5′-(trifluoromethyl)-[2,3′-bipyridin]-6-yl)acetamide]",711 nM
5,"Cc1nc(Cn2c(=O)c3c(ncn3[C@@H](C)C(=O)Nc3cncc(-c4cnc(C)c(C(F)(F)F)c4)n3)n(C)c2=O)no1 [Compound 170, (S)-2-(3-methyl-1-((5-methyl-1,2,4-oxadiazol-3-yl)methyl)-2,6-dioxo-2,3-dihydro-1H-purin-7(6H)-yl)-N-(6-(6-methyl-5-(trifluoromethyl)pyridin-3-yl)pyrazin-2-yl)propanamide]",27 nM
6,"CC(=O)Cn1c(=O)c2c(ncn2CC(=O)Nc2cccc(-c3cnc(C(F)(F)F)c(C)c3)n2)n(C)c1=O [Compound 227, 2-(3-methyl-2,6-dioxo-1-(2-oxopropyl)-2,3-dihydro-1H-purin-7(6H)-yl)-N-(5′-methyl-6′-(trifluoromethyl)-[2,3′-bipyridin]-6-yl)acetamide]",22 nM
7,"Cc1cc(-c2cccc(NC(=O)Cn3cnc4c3c(=O)n(Cc3ccon3)c(=O)n4C)n2)cnc1C(F)(F)F [Compound 224, 2-(1-(isoxazol-3-ylmethyl)-3-methyl-2,6-dioxo-2,3-dihydro-1H-purin-7(6H)-yl)-N-(5′-methyl-6′-(trifluoromethyl)-[2,3′-bipyridin]-6-yl)acetamide]",19 nM
8,"Cc1cc(Cn2c(=O)c3c(ncn3CC(=O)Nc3ccc(C#N)c(C(F)(F)F)n3)n(C)c2=O)no1 [Compound 201, N-(5-cyano-6-(trifluoromethyl)pyridin-2-yl)-2-(3-methyl-1-((5-methylisoxazol-3-yl)methyl)-2,6-dioxo-2,3-dihydro-1H-purin-7(6H)-yl)acetamide]",309 nM
9,"CCC(=O)Cn1c(=O)c2c(ncn2CC(=O)Nc2cncc(-c3cnc(C(F)(F)F)c(C)c3)n2)n(C)c1=O [Compound 233, 2-(3-methyl-2,6-dioxo-1-(2-oxobutyl)-2,3-dihydro-1H-purin-7(6H)-yl)-N-(6-(5-methyl-6-(trifluoromethyl)pyridin-3-yl)pyrazin-2-yl)acetamide]",10 nM
10,"Cc1ncc(-c2cccc(NC(=O)Cn3cnc4c3c(=O)n(Cc3ccon3)c(=O)n4C)n2)cc1C(F)(F)F [Compound 239, 2-(1-(isoxazol-3-ylmethyl)-3-methyl-2,6-dioxo-2,3-dihydro-1H-purin-7(6H)-yl)-N-(6′-methyl-5′-(trifluoromethyl)-[2,3′-bipyridin]-6-yl)acetamide]",3 nM
11,"Cn1c(=O)n(Cc2ccccn2)c(=O)c2c1ncn2CC(=O)Nc1cccc(-c2ccc(Cl)cc2)n1 [Compound 188, N-(6-(4-chlorophenyl)pyridin-2-yl)-2-(3-methyl-2,6-dioxo-1-(pyridin-2-ylmethyl)-2,3-dihydro-1H-purin-7(6H)-yl)acetamide]",33 nM

# Now from value to molecule:
row,IC50,Structure (SMILES)
1,44 nM,"CNC(=O)Cn1c(=O)c2c(ncn2[C@@H](C)C(=O)Nc2csc(-c3cnc(N4CC5CC5C4)nc3)n2)n(C)c1=O (stereo partly drawn) [Compound 71, (2S)—N-(2-(2-(3-azabicyclo[3.1.0]hexan-3-yl)pyrimidin-5-yl)thiazol-4-yl)-2-(3-methyl-1-(2-(methylamino)-2-oxoethyl)-2,6-dioxo-2,3-dihydro-1H-purin-7(6H)-yl)propanamide]"
2,1 nM,CCC(=O)Cn1c(=O)c2c(ncn2[C@@H](C)C(=O)Nc2csc(-c3ccc(N4CC5CC5C4)nc3)n2)n(C)c1=O (stereo partly drawn) [Compound 33]
3,1 nM,"Cc1cc(Cn2c(=O)c3c(ncn3[C@@H](C)C(=O)Nc3ccnc(-c4cnc(C)c(C(F)(F)F)c4)n3)n(C)c2=O)no1 [Compound 110, (S)-2-(3-methyl-1-((5-methylisoxazol-3-yl)methyl)-2,6-dioxo-2,3-dihydro-1H-purin-7(6H)-yl)-N-(2-(6-methyl-5-(trifluoromethyl)pyridin-3-yl)pyrimidin-4-yl)propanamide]"
4,3 nM,"Cc1ncc(-c2cccc(NC(=O)[C@H](C)n3cnc4c3c(=O)n(Cc3ccon3)c(=O)n4C)n2)cc1C(F)(F)F [Compound 136, (S)-2-(1-(isoxazol-3-ylmethyl)-3-methyl-2,6-dioxo-2,3-dihydro-1H-purin-7(6H)-yl)-N-(6′-methyl-5′-(trifluoromethyl)-[2,3′-bipyridin]-6-yl)propanamide]"
5,24 nM,"CC(C(=O)Nc1cccc(-c2cnc(C(F)(F)F)nc2)n1)n1cnc2c1c(=O)n(CC#N)c(=O)n2C (stereo not drawn) [Compound 10, 2-(1-(cyanomethyl)-3-methyl-2,6-dioxo-2,3-dihydro-1H-purin-7(6H)-yl)-N-(6-(2-(trifluoromethyl)pyrimidin-5-yl)pyridin-2-yl)propanamide]"
6,62 nM,"Cc1cc(Cn2c(=O)c3c(ncn3CC(=O)Nc3cccc(N4CC5CC5C4)n3)n(C)c2=O)no1 (stereo not drawn) [Compound 212, N-(6-(3-azabicyclo[3.1.0]hexan-3-yl)pyridin-2-yl)-2-(3-methyl-1-((5-methylisoxazol-3-yl)methyl)-2,6-dioxo-2,3-dihydro-1H-purin-7(6H)-yl)acetamide]"
7,2 nM,"Cc1cc(Cn2c(=O)c3c(ncn3[C@@H](C)C(=O)Nc3ccnc(-c4cnc(N5CCC[C@H]5C(F)(F)F)nc4)n3)n(C)c2=O)no1 [Compound 114, (S)-2-(3-methyl-1-((5-methylisoxazol-3-yl)methyl)-2,6-dioxo-2,3-dihydro-1H-purin-7(6H)-yl)-N-(2′-((S)-2-(trifluoromethyl)pyrrolidin-1-yl)-[2,5′-bipyrimidin]-4-yl)propanamide]"
8,31 nM,"COCC(=O)Cn1c(=O)c2c(ncn2[C@@H](C)C(=O)Nc2csc(-c3cnc(N4CC5CC5C4)cn3)n2)n(C)c1=O (stereo partly drawn) [Compound 264, (2S)—N-(2-(5-(3-azabicyclo[3.1.0]hexan-3-yl)pyrazin-2-yl)thiazol-4-yl)-2-(1-(3-methoxy-2-oxopropyl)-3-methyl-2,6-dioxo-2,3-dihydro-1H-purin-7(6H)-yl)propanamide]"
9,2 nM,"CCC(=O)Cn1c(=O)c2c(ncn2CC(=O)Nc2csc(-c3cnc(C)c(C(F)(F)F)c3)n2)n(C)c1=O [Compound 247, 2-(3-methyl-2,6-dioxo-1-(2-oxobutyl)-2,3-dihydro-1H-purin-7(6H)-yl)-N-(2-(6-methyl-5-(trifluoromethyl)pyridin-3-yl)thiazol-4-yl)acetamide]"
10,7 nM,C[C@@H](C(=O)Nc1cncc(-c2cnc(N3CC4CC4C3)nc2)n1)n1cnc2c1c(=O)n(CC#N)c(=O)n2C (stereo partly drawn) [Compound 12]
11,22 nM,"Cc1ncc(-c2nc(NC(=O)[C@H](C)n3cnc4c3c(=O)n(CC(F)(F)F)c(=O)n4C)cs2)cc1C(F)(F)F [Compound 162, (S)-2-(3-methyl-2,6-dioxo-1-(2,2,2-trifluoroethyl)-2,3-dihydro-1H-purin-7(6H)-yl)-N-(2-(6-methyl-5-(trifluoromethyl)pyridin-3-yl)thiazol-4-yl)propanamide]"
12,894 nM,"C[C@@H](C(=O)Nc1cccc(-c2cnc(C(F)(F)F)nc2)n1)n1cnc2c1c(=O)n(CC1CCO1)c(=O)n2C (stereo partly drawn) [Compound 88, (2S)-2-(3-methyl-1-(oxetan-2-ylmethyl)-2,6-dioxo-2,3-dihydro-1H-purin-7(6H)-yl)-N-(6-(2-(trifluoromethyl)pyrimidin-5-yl)pyridin-2-yl)propanamide]"
13,3 nM,"CC(=O)Cn1c(=O)c2c(ncn2[C@@H](C)C(=O)Nc2csc(-c3cnc(N4CC5C(C4)C5(F)F)nc3)n2)n(C)c1=O (stereo partly drawn) [Compound 56, (2S)—N-(2-(2-(6,6-difluoro-3-azabicyclo[3.1.0]hexan-3-yl)pyrimidin-5-yl)thiazol-4-yl)-2-(3-methyl-2,6-dioxo-1-(2-oxopropyl)-2,3-dihydro-1H-purin-7(6H)-yl)propanamide]"
14,3 nM,"CCC(=O)Cn1c(=O)c2c(ncn2[C@@H](C)C(=O)Nc2csc(-c3cnc(N4CC5CC5C4)cn3)n2)n(C)c1=O (stereo partly drawn) [Compound 270, (2S)—N-(2-(5-(3-azabicyclo[3.1.0]hexan-3-yl)pyrazin-2-yl)thiazol-4-yl)-2-(3-methyl-2,6-dioxo-1-(2-oxobutyl)-2,3-dihydro-1H-purin-7(6H)-yl)propanamide]"
15,7 nM,"C[C@@H](C(=O)Nc1cncc(-c2cnc(N3CCC[C@H]3C(F)(F)F)nc2)n1)n1cnc2c1c(=O)n(CC#N)c(=O)n2C [Compound 48, (S)-2-(1-(cyanomethyl)-3-methyl-2,6-dioxo-2,3-dihydro-1H-purin-7(6H)-yl)-N-(6-(2-((S)-2-(trifluoromethyl)pyrrolidin-1-yl)pyrimidin-5-yl)pyrazin-2-yl)propanamide]"
16,1 nM,"CC#CCn1c(=O)c2c(ncn2[C@@H](C)C(=O)Nc2csc(-c3ccc(N4CC5C(C4)C5(F)F)nc3)n2)n(C)c1=O (stereo partly drawn) [Compound 262, (2S)-2-(1-(but-2-yn-1-yl)-3-methyl-2,6-dioxo-2,3-dihydro-1H-purin-7(6H)-yl)-N-(2-(6-(6,6-difluoro-3-azabicyclo[3.1.0]hexan-3-yl)pyridin-3-yl)thiazol-4-yl)propanamide]"
